For the assay, the target named is T1, Aldo-keto reductase family 1 member C3 (Homo sapiens, UniProt P42330).
T1 sequence (P42330 whole entry): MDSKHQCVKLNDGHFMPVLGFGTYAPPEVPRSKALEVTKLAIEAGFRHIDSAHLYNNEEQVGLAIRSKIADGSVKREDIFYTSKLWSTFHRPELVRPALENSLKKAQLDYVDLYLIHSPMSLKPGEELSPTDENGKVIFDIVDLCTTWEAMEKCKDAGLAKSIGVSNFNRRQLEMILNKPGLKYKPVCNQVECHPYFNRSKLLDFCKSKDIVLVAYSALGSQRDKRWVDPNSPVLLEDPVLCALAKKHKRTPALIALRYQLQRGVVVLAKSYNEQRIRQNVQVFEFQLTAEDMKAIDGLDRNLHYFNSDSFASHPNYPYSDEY
The assay can be described thus: Inhibitory Activity Assay: Essentially, the enzyme activity is measured by quantification of the Coumberol from Coumberone (Halim, M., Yee, D. J., and Sames, D., J. AM. CHEM. SOC. 130, 14123-14128 (2008) and Yee, D. J., Balsanek, V., Bauman, D. R., Penning, T. M., and Sames, D., Proc. Natl. Acad. Sci. USA 103, 13304-13309 (2006)). In this test, the increase of the highly fluorescent Coumberol by NADPH⿿(nicotinamide adenine dinucleotide phosphate)-dependent reduction of the non-fluorescent Coumberone by AKR1C3 can be determined.The enzyme used was recombinant human AKR1C3 (Aldo-keto reductase family 1 member C3) (GenBank Accession No. NM_003739). This was expressed in E. coli as GST (glutathione S transferase) fusion protein and purified by glutathione Sepharose affinity chromatography. The GST was removed by digestion with thrombin and subsequent size exclusion chromatography (Dufort, I., Rheault, P., Huang, X F., Soucy, P., and Luu-The, V., Endocrinology 140, 568-574 (1999)). […]. In general terms: SEC sorts molecules by how far they enter the pores of the column.

This note sets out measurements from ChEMBL document CHEMBL3887007, “Estra-1,3,5(10),16-tetraene-3-carboxamide derivatives, processes for their preparation, pharmaceutical preparations comprising them and their use for preparing medicaments” (2016).

Values joined by “and” are separate entries in the source; they are usually repeats but may differ in a detail not shown here. Equal entries are not always repeated.

The term IC50 denotes the point on the concentration scale where inhibition reaches its midpoint. For `C[C@]12CC[C@@H]3c4ccc(C(=O)NCC5(C(=O)O)CC5)cc4CC[C@H]3[C@@H]1CC=C2c1cncc(F)c1`, the IC50 is 9.2 nM and 10.2 nM.
